In patent US20230109839A1, “THERAPEUTIC AGENT FOR TAUOPATHIES” (SUMITOMO PHARMA CO., LTD., priority 2020, published 2023):
Read-outs that look alike come from different tables or passages of the source.

Molecular target: T1, human Nav1.1 (Homo sapiens, UniProt P35498)
T1 construct: host or cells: HEK293
Assay: Amplification of Nav1.1-derived voltage-gated sodium current (Nav1.1 current), automated patch clamp (Test 1)
Type: cell-based
Settings: for activation at 0.3 µM: HEK293, concentration for evaluation 0.3 μM; for activation at 0.3 µM / activation at 1 µM: read-out: Nav1.1 current amplification rate (%)
Method in brief: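 Compound-induced change in ramp-evoked sodium current peak and AUC was expressed as 100×post/pre ratio minus 100. Recordings used automated patch clamp in voltage-clamp mode on a stable human Nav1.1 HEK293 line, including only cells above 500 pA. Compounds were delivered in extracellular fluid containing 1% DMSO.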

[1] = Concentration for evaluation 10 μM, HEK293 cell line stably expressing human Nav1.1
[2] = Concentration for evaluation 3 μM, HEK293 cell line stably expressing human Nav1.1
[3] = HEK293 stably expressing human Nav1.1
[4] = Concentration for evaluation 1 μM, HEK293 cell line stably expressing human Nav1.1
[5] = HEK293, Concentration for evaluation 1 μM, HEK293 cell line stably expressing human Nav1.1
[6] = Concentration for evaluation 50 μM, HEK293 cell line stably expressing human Nav1.1
[7] = HEK293, concentration for evaluation 1 μM, HEK293 stably expressing human Nav1.1
[8] = concentration for evaluation 1 μM, HEK293 stably expressing human Nav1.1

N#Cc1ccc(NC(=O)Cn2nc(N3CCC4(CCCCC4)C3)ccc2=O)cc1 [Example 31]
Nav1.1 current amplification rate (%) [1]: 220%

CC1CCC(c2ccc(=O)n(CC(=O)N3CCc4c(N5CCOCC5)cccc43)n2)CC1 (mixture of isomers) [Example 472]
Nav1.1 current amplification rate (%) [1]: 387%

CC1CC=C(c2ccc(=O)n(CC(=O)N3CCc4cc(C5CN(C6COC6)C5)ccc43)n2)CC1 (stereo not drawn) [Example 318]
Nav1.1 current amplification rate (%) [2]: 77%

CC1CCN(c2ccc(=O)n(CC(=O)Nc3cccc(-c4cnco4)c3)n2)CC1 [Example 77]
Nav1.1 current amplification rate (%) [1]: 93%

CN(c1ncc2cnn(CC(=O)N3CCc4c(-c5ccnnc5)cccc43)c2n1)C1CC1 [Example 838]
activation at 0.3 µM [3]: 122%

CC1CC=C(c2ccc(=O)n(CC(=O)Nc3ccc(C#N)nc3)n2)CC1 (stereo not drawn) [Example 360]
Nav1.1 current amplification rate (%) [4]: 200%

CN1CC(c2cccc3c2CCN3C(=O)Cn2ncc3ncc(N(C)C4CCC4)nc32)C1 [Example 698]
Nav1.1 current amplification rate (%) [4]: 18%

Cc1ccc(-c2cnc3cnn(CC(=O)N4CCN(c5cccnc5)CC4)c3n2)c(F)c1 [Example 742]
activation at 1 µM [5]: 32%

Cc1cn2ccc(NC(=O)Cn3ncc4ncc(N(C)C5CC5)nc43)cc2n1 [Example 703]
Nav1.1 current amplification rate (%) [4]: 27%

CC1CC=C(c2ccc(=O)n(CC(=O)N3CCc4c(CN(C)C5COC5)cccc43)n2)CC1 (stereo not drawn) [Example 276]
Nav1.1 current amplification rate (%) [4]: 207%

CC1CCN(c2ccc(=O)n(CC(=O)Nc3ccc(C#N)cc3)n2)C1 (stereo not drawn) [Example 19]
Nav1.1 current amplification rate (%) [1]: 98%

CC1CC=C(c2ccc(=O)n(CC(=O)N3CC4(C3)CN(c3cccnc3)C4)n2)CC1 (racemic) [Example 424]
Nav1.1 current amplification rate (%) [1]: 40%

O=C(Cn1ncc2ncc(N3CCC4(CCC4)CC3)nc21)N1CCN(c2cccnc2)CC1 [Example 736]
activation at 1 µM [5]: 13%

CC1CC=C(c2ccc(=O)n(CC(=O)N3CCc4c(C5CN(C6COC6)C5)cccc43)n2)CC1 (stereo not drawn) [Example 301]
Nav1.1 current amplification rate (%) [2]: 410%

CC1CCC(F)(F)CN1c1ncc2cnn(CC(=O)Nc3ccn4ncnc4c3)c2n1 (stereo not drawn) [Example 793]
Nav1.1 current amplification rate (%) [6]: 55%

Cc1cn(Cc2cccc3c2CCN3C(=O)Cn2nc(C3=CCC(C)CC3)ccc2=O)cn1 (stereo not drawn) [Example 288]
Nav1.1 current amplification rate (%) [4]: 115%

CC1CC=C(c2ccc(=O)n(CC(=O)Nc3ccc4nccn4n3)n2)CC1 (stereo not drawn) [Example 346]
Nav1.1 current amplification rate (%) [4]: 96%

Cc1cn2ccc(NC(=O)Cn3ncc4ncc(N(C)C5CCC5)nc43)cc2n1 [Example 686]
Nav1.1 current amplification rate (%) [4]: 13%

CN(CC1(C)CC1)c1ncc2cnn(CC(=O)Nc3cnc4cccnc4c3)c2n1 [Example 851]
activation at 1 µM [7]: 89%

CC1CC=C(c2ccc(=O)n(CC(=O)NC3CCN(c4ccccc4)CC3)n2)CC1 (stereo not drawn) [Example 368]
Nav1.1 current amplification rate (%) [1]: 18%

CC1CC=C(c2ccc(=O)n(CC(=O)N3CCc4c(-c5cc[nH]n5)ccnc43)n2)CC1 (stereo not drawn) [Example 291]
Nav1.1 current amplification rate (%) [6]: 212%

O=C(Cn1ncc2cnc(N3CCC4(CCC4)CC3)nc21)Nc1ccc2ncnn2c1 [Example 811]
Nav1.1 current amplification rate (%) [8]: 23%

CC1CC=C(c2ccc(=O)n(CC(=O)N3CCc4c3ccnc4C3=CCNC3)n2)CC1 (stereo not drawn) [Example 281]
Nav1.1 current amplification rate (%) [1]: 40%

CC1CC=C(c2ccc3cnn(CC(=O)N4CCN(c5cccnc5)CC4)c3n2)CC1 (stereo not drawn) [Example 881]
activation at 1 µM [7]: 446%

CC1(C)CC=C(c2ccc(=O)n(CC(=O)N3CCN(c4cncc(F)c4)CC3)n2)C1 [Example 483]
Nav1.1 current amplification rate (%) [1]: 175%

N#Cc1ccc(NC(=O)Cn2nc(N3CCC4(CC3)CC(F)(F)C4)ccc2=O)cc1 [Example 32]
Nav1.1 current amplification rate (%) [1]: 60%

O=C(Cn1ncc2cnc(N3CCC4(CC4)C(F)(F)C3)nc21)Nc1ccc2ncnn2c1 [Example 813]
Nav1.1 current amplification rate (%) [8]: 105%

COc1cccc(F)c1-c1ncc2cnn(CC(=O)Nc3ccn4ncnc4c3)c2n1 [Example 791]
Nav1.1 current amplification rate (%) [6]: 14%

COCc1nc2cc(NC(=O)Cn3nc(C4=CCC(C)CC4)ccc3=O)ccc2o1 (stereo not drawn) [Example 325]
Nav1.1 current amplification rate (%) [2]: 233%

CN(c1cnc2cnn(CC(=O)Nc3ccc(-n4ccnc4)nc3)c2n1)C1CCCC1 [Example 682]
Nav1.1 current amplification rate (%) [4]: 53%

COC1CN(Cc2cncc(NC(=O)Cn3nc(C4=CCC(C)CC4)ccc3=O)c2)C1 (stereo not drawn) [Example 366]
Nav1.1 current amplification rate (%) [6]: 37%

CC1CC=C(c2ccc(=O)n(CC(=O)N3CCc4c(CNC5CCC5)cccc43)n2)CC1 (stereo not drawn) [Example 315]
Nav1.1 current amplification rate (%) [4]: 19%

CN(c1cnc2cnn(CC(=O)Nc3ccc4ccncc4n3)c2n1)C1CC1 [Example 724]
Nav1.1 current amplification rate (%) [4]: 28%

CN(CCC1CC1)c1ncc2cnn(CC(=O)Nc3ccn4ncnc4c3)c2n1 [Example 790]
Nav1.1 current amplification rate (%) [4]: 31%

O=C(Cn1nc(C2=CCC(F)(F)CC2)ccc1=O)Nc1ccn2ccnc2c1 [Example 464]
Nav1.1 current amplification rate (%) [1]: 18%

CC1CCN(c2ccc(=O)n(CC(=O)Nc3ccc(C(F)(F)F)nc3)n2)CC1 [Example 59]
Nav1.1 current amplification rate (%) [1]: 180%

CC1CCN(c2ncc3cnn(CC(=O)Nc4ccn5ncnc5c4)c3n2)CC1 [Example 763]
Nav1.1 current amplification rate (%) [4]: 98%

COc1ncc(N2CCN(C(=O)Cn3nc(C4=CCC(C)CC4)ccc3=O)CC2)cc1F (stereo not drawn) [Example 409]
Nav1.1 current amplification rate (%) [2]: 244%

CN(c1cnc2cnn(CC(=O)Nc3ccc4ncncc4c3)c2n1)C1CC2(CC2)C1 [Example 848]
activation at 0.3 µM [3]: 22%

CC1CCN(c2ccc(=O)n(CC(=O)Nc3ccc4oc(N(C)C)nc4c3)n2)CC1 [Example 91]
Nav1.1 current amplification rate (%) [1]: 93%

CC1CC=C(c2ccc(=O)n(CC(=O)N3CCc4c(C5=CCNC5)cccc43)n2)CC1 (stereo not drawn) [Example 265]
Nav1.1 current amplification rate (%) [2]: 110%

CC1CC=C(c2ccc(=O)n(CC(=O)Nc3ccc4cnnn4c3)n2)CC1 (stereo not drawn) [Example 345]
Nav1.1 current amplification rate (%) [4]: 232%

CC(C1CC1)N(C)c1cnc2cnn(CC(=O)Nc3ccn4ncnc4c3)c2n1 (stereo not drawn) [Example 633]
Nav1.1 current amplification rate (%) [4]: 15%

COc1ccc(N2CCN(C(=O)Cn3nc(C4=CCC(C)CC4)ccc3=O)CC2)cn1 (stereo not drawn) [Example 407]
Nav1.1 current amplification rate (%) [2]: 113%

CC1CC=C(c2ccc(=O)n(CC(=O)N3C[C@@H](C)N(c4cccnc4)[C@@H](C)C3)n2)CC1 (stereo partly drawn) [Example 416]
Nav1.1 current amplification rate (%) [1]: 383%

CC1CC=C(c2ccc(=O)n(CC(=O)N3CCN(C4CCCOC4)CC3)n2)CC1 (stereo not drawn) [Example 408]
Nav1.1 current amplification rate (%) [6]: 80%

COc1cc(C2=CCC(C(F)(F)F)CC2)nn(CC(=O)Nc2ccc3ocnc3c2)c1=O (racemic) [Example 447]
Nav1.1 current amplification rate (%) [1]: 148%

CC1CC=C(c2ccc(=O)n(CC(=O)N3CCc4c(C5CN(C(C)C)C5)cccc43)n2)CC1 (stereo not drawn) [Example 304]
Nav1.1 current amplification rate (%) [1]: 167%

CC1CC=C(c2ccc(=O)n(CC(=O)Nc3ccc4oc(CN(C)C)nc4c3)n2)CC1 (stereo not drawn) [Example 324]
Nav1.1 current amplification rate (%) [2]: 50%

CC1CC=C(c2ccc(=O)n(CC(=O)N3CCC(c4ccccn4)CC3)n2)CC1 (stereo not drawn) [Example 260]
Nav1.1 current amplification rate (%) [1]: 13%

CC1CC=C(c2ccc(=O)n(CC(=O)N3CCc4c3ccnc4C3=CCN(C(=O)OC(C)(C)C)C3)n2)CC1 (stereo not drawn) [Example 280]
Nav1.1 current amplification rate (%) [4]: 10%
